The IC50 is the concentration needed to halve the response being measured.

Sequence of Fibroblast growth factor receptor 1 (P11362 whole entry): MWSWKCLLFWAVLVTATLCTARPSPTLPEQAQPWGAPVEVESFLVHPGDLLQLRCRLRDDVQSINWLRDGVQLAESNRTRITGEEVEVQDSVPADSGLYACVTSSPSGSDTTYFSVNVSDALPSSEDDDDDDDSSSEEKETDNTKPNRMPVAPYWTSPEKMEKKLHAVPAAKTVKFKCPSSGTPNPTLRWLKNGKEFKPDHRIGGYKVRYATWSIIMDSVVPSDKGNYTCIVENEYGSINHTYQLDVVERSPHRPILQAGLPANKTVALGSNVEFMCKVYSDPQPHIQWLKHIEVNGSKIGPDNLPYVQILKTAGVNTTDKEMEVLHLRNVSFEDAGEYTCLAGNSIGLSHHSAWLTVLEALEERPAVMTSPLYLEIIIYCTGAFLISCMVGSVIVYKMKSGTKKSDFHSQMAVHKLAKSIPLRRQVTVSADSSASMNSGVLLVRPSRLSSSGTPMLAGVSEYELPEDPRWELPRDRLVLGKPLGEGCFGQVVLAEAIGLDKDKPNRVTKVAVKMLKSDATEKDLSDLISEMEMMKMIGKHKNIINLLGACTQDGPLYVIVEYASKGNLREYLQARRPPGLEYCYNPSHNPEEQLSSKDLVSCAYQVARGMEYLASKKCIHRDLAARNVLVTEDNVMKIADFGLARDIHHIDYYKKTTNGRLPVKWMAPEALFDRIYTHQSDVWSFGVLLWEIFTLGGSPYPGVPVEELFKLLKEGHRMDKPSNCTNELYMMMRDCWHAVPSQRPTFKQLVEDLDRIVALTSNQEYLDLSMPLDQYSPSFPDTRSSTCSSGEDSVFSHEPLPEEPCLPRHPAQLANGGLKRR
Sequence of Fibroblast growth factor receptor 3 (P22607 whole entry): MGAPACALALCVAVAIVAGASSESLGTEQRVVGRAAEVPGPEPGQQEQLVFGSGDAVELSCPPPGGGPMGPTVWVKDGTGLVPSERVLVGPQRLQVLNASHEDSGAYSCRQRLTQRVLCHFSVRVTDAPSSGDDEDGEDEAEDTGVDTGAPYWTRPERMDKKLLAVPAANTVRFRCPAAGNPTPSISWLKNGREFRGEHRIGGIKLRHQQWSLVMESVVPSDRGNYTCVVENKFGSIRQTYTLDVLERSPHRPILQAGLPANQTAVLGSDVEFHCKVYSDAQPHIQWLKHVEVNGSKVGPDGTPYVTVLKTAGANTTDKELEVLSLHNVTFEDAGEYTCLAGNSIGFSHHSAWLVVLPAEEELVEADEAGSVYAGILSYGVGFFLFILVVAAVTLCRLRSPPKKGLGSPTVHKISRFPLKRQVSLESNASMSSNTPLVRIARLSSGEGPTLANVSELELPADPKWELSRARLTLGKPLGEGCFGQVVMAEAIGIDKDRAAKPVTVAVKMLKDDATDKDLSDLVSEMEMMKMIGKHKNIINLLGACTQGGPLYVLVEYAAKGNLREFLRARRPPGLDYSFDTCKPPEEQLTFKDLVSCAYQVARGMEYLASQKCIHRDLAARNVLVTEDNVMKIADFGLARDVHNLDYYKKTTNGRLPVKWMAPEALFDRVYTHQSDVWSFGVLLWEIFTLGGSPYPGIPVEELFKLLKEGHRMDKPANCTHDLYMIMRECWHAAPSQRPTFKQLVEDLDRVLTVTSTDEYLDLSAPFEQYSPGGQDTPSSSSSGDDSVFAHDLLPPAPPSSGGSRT

One assay addresses Fibroblast growth factor receptor 3 (Homo sapiens, UniProt P22607). Kind of assay: Inhibition of FGFR3 (unknown origin) using Tyr04 peptide as substrate incubated for 1 hr in presence of ATP by FRET based Z'-LYTE assay.
Conditions: not given
In the case of `CCCOc1cc(NC(=O)N2CCCc3ccc(C(=O)C(F)(F)F)nc32)ncc1C#N`, the IC50 is over 10 µM.
The same measure, in the same setting: with `CCCCOc1cc(NC(=O)N2CCCc3ccc(C(=O)C(F)(F)F)nc32)ncc1C#N` the figure was over 10 µM.
The same measure, in the same setting: the result for `COCCOc1cc(NC(=O)N2CCCc3ccc(C(=O)C(F)(F)F)nc32)ncc1C#N` reads over 10 µM; that for `COc1cc(NC(=O)N2CCCc3ccc(C(=O)C(F)(F)F)nc32)ncc1C#N`, over 10 µM.
Still for that read-out and setting: with `CC(C)Oc1cc(NC(=O)N2CCCc3ccc(C=O)nc32)ncc1C#N` the figure was over 10 µM.
In the case of `N#Cc1cnc(NC(=O)N2CCCc3ccc(C(=O)C(F)(F)F)nc32)cc1OC1CCOC1` (stereo not given), the IC50 is over 10 µM.
For `COCCNc1cc(NC(=O)N2CCCc3ccc(C(=O)C(F)(F)F)nc32)ncc1C#N`, the IC50 was over 10 µM.
Same read-out and setting: with `N#Cc1cnc(NC(=O)N2CCCc3ccc(C(=O)C(F)(F)F)nc32)cc1OC1CCCCC1` the figure was over 10 µM; with `CC(C)Oc1cc(NC(=O)N2CCCc3ccc(C(=O)C(F)(F)F)nc32)ncc1C#N`, over 10 µM; with `N#Cc1cnc(NC(=O)N2CCCc3ccc(C(=O)C(F)(F)F)nc32)cc1OC1CCCC1`, over 10 µM.
In the case of `CCOc1cc(NC(=O)N2CCCc3ccc(C(=O)C(F)(F)F)nc32)ncc1C#N`, the IC50 was over 10 µM.

A further assay deals with Fibroblast growth factor receptor 2 (Homo sapiens, UniProt P21802). Kind of assay: Inhibition of FGFR2 (unknown origin) using Tyr04 peptide as substrate incubated for 1 hr in presence of ATP by FRET based Z'-LYTE assay.
Sequence of Fibroblast growth factor receptor 2 (P21802 whole entry): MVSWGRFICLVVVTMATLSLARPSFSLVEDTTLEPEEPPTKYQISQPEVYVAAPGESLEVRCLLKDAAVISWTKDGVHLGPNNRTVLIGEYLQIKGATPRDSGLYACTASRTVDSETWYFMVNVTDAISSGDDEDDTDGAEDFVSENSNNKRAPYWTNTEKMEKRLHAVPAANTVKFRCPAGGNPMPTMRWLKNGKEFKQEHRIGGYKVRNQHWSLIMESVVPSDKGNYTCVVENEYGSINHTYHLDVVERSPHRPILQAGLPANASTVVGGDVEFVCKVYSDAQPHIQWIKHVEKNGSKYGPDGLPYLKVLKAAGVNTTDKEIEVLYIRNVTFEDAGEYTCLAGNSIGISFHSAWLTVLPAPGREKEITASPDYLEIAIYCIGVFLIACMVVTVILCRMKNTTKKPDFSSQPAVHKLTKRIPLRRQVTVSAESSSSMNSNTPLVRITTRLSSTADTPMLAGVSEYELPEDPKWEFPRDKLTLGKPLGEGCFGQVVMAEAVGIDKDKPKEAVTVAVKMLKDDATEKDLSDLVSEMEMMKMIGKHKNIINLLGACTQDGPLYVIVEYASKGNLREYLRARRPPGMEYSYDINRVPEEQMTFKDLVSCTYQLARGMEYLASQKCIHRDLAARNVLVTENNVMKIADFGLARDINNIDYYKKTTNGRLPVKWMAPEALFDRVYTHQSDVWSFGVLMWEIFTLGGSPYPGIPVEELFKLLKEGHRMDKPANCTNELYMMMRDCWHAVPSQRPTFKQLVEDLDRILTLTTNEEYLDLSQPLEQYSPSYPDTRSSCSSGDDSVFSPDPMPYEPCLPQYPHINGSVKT
Conditions: not given
Turning to `CCCOc1cc(NC(=O)N2CCCc3ccc(C(=O)C(F)(F)F)nc32)ncc1C#N`, the 50% inhibitory concentration (IC50) is over 10 µM.
In the case of `CCCCOc1cc(NC(=O)N2CCCc3ccc(C(=O)C(F)(F)F)nc32)ncc1C#N`, the IC50 was over 10 µM.
The same measure, in the same setting: the result for `COCCOc1cc(NC(=O)N2CCCc3ccc(C(=O)C(F)(F)F)nc32)ncc1C#N` reads over 10 µM; that for `COc1cc(NC(=O)N2CCCc3ccc(C(=O)C(F)(F)F)nc32)ncc1C#N`, over 10 µM; that for `CC(C)Oc1cc(NC(=O)N2CCCc3ccc(C=O)nc32)ncc1C#N`, over 10 µM.
The same measure, in the same setting: with `N#Cc1cnc(NC(=O)N2CCCc3ccc(C(=O)C(F)(F)F)nc32)cc1OC1CCOC1` (stereo not given) the figure was over 10 µM; with `COCCNc1cc(NC(=O)N2CCCc3ccc(C(=O)C(F)(F)F)nc32)ncc1C#N`, over 10 µM.
In the case of `N#Cc1cnc(NC(=O)N2CCCc3ccc(C(=O)C(F)(F)F)nc32)cc1OC1CCCCC1`, the IC50 was over 10 µM.
Regarding `CC(C)Oc1cc(NC(=O)N2CCCc3ccc(C(=O)C(F)(F)F)nc32)ncc1C#N`, the IC50 was over 10 µM.
Take `N#Cc1cnc(NC(=O)N2CCCc3ccc(C(=O)C(F)(F)F)nc32)cc1OC1CCCC1`: the IC50 was over 10 µM.
The same measure, in the same setting: the result for `CCOc1cc(NC(=O)N2CCCc3ccc(C(=O)C(F)(F)F)nc32)ncc1C#N` reads over 10 µM.

A further assay addresses Fibroblast growth factor receptor 1 (Homo sapiens, UniProt P11362). Kind of assay: Inhibition of FGFR1 (unknown origin) using Tyr04 peptide as substrate incubated for 1 hr in presence of ATP by FRET based Z'-LYTE assay.
Conditions: not given
For `CCCOc1cc(NC(=O)N2CCCc3ccc(C(=O)C(F)(F)F)nc32)ncc1C#N`, the IC50 was over 10 µM.
As for `CCCCOc1cc(NC(=O)N2CCCc3ccc(C(=O)C(F)(F)F)nc32)ncc1C#N`, the IC50 was over 10 µM.
Take `COCCOc1cc(NC(=O)N2CCCc3ccc(C(=O)C(F)(F)F)nc32)ncc1C#N`: the IC50 was over 10 µM.
`COc1cc(NC(=O)N2CCCc3ccc(C(=O)C(F)(F)F)nc32)ncc1C#N`: the half-inhibitory concentration (IC50) was over 10 µM.
Still for that read-out and setting: with `CC(C)Oc1cc(NC(=O)N2CCCc3ccc(C=O)nc32)ncc1C#N` the figure was over 10 µM; with `N#Cc1cnc(NC(=O)N2CCCc3ccc(C(=O)C(F)(F)F)nc32)cc1OC1CCOC1` (stereo not given), over 10 µM; with `COCCNc1cc(NC(=O)N2CCCc3ccc(C(=O)C(F)(F)F)nc32)ncc1C#N`, over 10 µM.
Still for that read-out and setting: with `N#Cc1cnc(NC(=O)N2CCCc3ccc(C(=O)C(F)(F)F)nc32)cc1OC1CCCCC1` the figure was over 10 µM; with `CC(C)Oc1cc(NC(=O)N2CCCc3ccc(C(=O)C(F)(F)F)nc32)ncc1C#N`, over 10 µM; with `N#Cc1cnc(NC(=O)N2CCCc3ccc(C(=O)C(F)(F)F)nc32)cc1OC1CCCC1`, over 10 µM.
As to `CCOc1cc(NC(=O)N2CCCc3ccc(C(=O)C(F)(F)F)nc32)ncc1C#N`, the IC50 was over 10 µM.

The target of a further assay is Fibroblast growth factor receptor 4 (Homo sapiens) (UniProt P22455). Nature of the assay: Reversible covalent binding affinity to recombinant His-tagged human FGFR4 expressed in baculovirus expression system assessed as recovery of kinase activity preincubated for 120 mins followed by dialysis of protein for 3 days by MALDI-TOF MS analysis relative to control. The following applies: time 4440.0 min.
Sequence of Fibroblast growth factor receptor 4 (Homo sapiens) (P22455 22-802 limits assumed): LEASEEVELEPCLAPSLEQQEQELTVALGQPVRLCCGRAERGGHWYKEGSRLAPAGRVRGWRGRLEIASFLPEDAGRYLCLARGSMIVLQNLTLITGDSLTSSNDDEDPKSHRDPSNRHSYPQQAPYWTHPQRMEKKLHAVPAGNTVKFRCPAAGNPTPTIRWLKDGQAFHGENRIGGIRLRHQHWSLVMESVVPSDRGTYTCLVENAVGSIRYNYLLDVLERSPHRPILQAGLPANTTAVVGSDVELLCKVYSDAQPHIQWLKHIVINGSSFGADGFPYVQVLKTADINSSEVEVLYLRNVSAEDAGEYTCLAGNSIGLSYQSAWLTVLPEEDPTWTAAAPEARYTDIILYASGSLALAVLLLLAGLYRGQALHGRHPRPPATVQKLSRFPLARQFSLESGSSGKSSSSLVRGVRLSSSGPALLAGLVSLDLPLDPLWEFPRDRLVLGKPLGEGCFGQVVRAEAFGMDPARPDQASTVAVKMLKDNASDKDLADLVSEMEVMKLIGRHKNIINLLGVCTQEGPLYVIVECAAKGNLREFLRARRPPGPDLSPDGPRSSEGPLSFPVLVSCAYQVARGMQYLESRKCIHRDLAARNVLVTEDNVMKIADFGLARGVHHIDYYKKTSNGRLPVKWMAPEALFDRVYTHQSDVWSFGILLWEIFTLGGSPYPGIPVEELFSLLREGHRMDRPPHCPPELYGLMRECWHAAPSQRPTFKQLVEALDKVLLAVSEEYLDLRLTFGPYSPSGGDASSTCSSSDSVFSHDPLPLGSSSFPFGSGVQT
Turning to `Cc1ccc(C(=O)Nc2ccc(CN3CCN(C)CC3)c(C(F)(F)F)c2)cc1C#Cc1cnc2cccnn12`, the Activity amounted to 100%.

The target in the next assay is T1, Tyrosine-protein kinase JAK3 (Homo sapiens, UniProt P52333).
T1 sequence (P52333 whole entry): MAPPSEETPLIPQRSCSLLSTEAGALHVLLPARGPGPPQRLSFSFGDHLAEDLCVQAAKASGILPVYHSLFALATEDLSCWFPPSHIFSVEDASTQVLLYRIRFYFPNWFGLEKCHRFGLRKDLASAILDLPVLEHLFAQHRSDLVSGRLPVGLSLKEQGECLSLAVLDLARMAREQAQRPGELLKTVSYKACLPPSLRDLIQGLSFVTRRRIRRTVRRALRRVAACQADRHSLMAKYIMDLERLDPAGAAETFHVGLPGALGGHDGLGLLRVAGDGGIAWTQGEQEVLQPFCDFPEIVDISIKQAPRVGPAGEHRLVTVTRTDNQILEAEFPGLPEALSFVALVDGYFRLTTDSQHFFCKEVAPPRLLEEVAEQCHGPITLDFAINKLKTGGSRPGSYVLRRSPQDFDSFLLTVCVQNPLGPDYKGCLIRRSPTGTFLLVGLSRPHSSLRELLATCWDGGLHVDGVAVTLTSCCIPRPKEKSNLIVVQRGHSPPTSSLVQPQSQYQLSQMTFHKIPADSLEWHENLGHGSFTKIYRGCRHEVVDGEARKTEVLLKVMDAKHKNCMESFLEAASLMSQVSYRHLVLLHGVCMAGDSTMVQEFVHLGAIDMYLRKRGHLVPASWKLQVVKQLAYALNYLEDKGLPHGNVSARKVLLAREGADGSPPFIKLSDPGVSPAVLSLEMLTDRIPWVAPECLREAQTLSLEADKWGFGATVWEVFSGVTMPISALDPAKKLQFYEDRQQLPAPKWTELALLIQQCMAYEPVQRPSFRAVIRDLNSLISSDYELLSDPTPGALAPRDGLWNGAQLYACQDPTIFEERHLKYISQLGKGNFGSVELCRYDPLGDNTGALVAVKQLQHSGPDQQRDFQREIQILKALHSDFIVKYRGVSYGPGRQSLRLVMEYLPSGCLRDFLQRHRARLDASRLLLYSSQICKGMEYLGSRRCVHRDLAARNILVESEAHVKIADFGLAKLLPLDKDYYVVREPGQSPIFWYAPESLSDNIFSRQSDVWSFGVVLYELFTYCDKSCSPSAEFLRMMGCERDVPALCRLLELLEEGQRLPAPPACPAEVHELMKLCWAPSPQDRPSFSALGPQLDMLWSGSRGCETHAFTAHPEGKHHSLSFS
Kind of assay: Inhibition of JAK3 (unknown origin) incubated for 1 hr in presence of ATP and substrate by FRET based Z'-LYTE assay.
Conditions: not given
On to `O=C(c1ccc(-c2nc3cnc4[nH]ccc4c3n2C2CCCCC2)o1)C(F)(F)F`, for which the IC50 is 0.0872 µM.

The values above are taken from ChEMBL document CHEMBL5055662, “Characterization of an aromatic trifluoromethyl ketone as a new warhead for covalently reversible kinase inhibitor design” (Bioorg Med Chem, 2021).
